The text below walks through data of US20200277268A1, “PENTAFLUOROPHENYL SULFONAMIDE COMPOUNDS, COMPOSITIONS AND USES THEREOF” (DALRIADA THERAPEUTICS INC., priority 2017, published 2020).

For this experiment, the system named is MV4-11. Description: CellTiter-Blue cell viability, MV4-11. It is filed as cell-based. To be noted: Homo sapiens, MV4-11. The method in brief: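 Cells were seeded at 1×10^4/well, grown 24 h in FBS-supplemented medium, then exposed to compound (0.097656–50 μM) for 72 h at 37° C, 5% CO2. Viability was read by CellTiter-Blue fluorescence (560/590 nm) after 1–4 h reagent incubation, with IC50 derived by non-linear regression.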
Background: Resazurin is reduced to fluorescent resorufin, in cell work by metabolically active cells.

Usually IC50 stands for the midpoint of a concentration-inhibition curve. A low value points to inhibition by little substance. Consider `O=S(=O)(c1c(F)c(F)c(F)c(F)c1F)N(Cc1ccc(F)cc1)C1CC1` [Compound I-1, N-cyclopropyl-2,3,4,5,6-pentafluoro-N-(4-fluorobenzyl)benzenesulfonamide], for which the IC50 reads like this: (AML cell line, 72 hours) 470 nM; (AML, Table 4) 600 nM.
